Results on 53 compounds are retold here after patent publication US8501786B2, “Hydroxymethyl pyrrolidines as beta 3 adrenergic receptor agonists” (Merck Sharp & Dohme Corp., priority 2009, dated 2013).

Each structure is given as a SMILES string. Where a name gives a salt, the structure may show the parent alone.

For the first experiment, the target named is T1, human β3 adrenergic receptor (Homo sapiens, UniProt P13945).
T1 construct: stably transfected with the cloned β-adrenergic receptor (β1, β2 or β3); expressed in transfected cells; host or cells: Chinese hamster ovary (CHO) cells, stably transfected
T1 sequence (P13945 whole entry): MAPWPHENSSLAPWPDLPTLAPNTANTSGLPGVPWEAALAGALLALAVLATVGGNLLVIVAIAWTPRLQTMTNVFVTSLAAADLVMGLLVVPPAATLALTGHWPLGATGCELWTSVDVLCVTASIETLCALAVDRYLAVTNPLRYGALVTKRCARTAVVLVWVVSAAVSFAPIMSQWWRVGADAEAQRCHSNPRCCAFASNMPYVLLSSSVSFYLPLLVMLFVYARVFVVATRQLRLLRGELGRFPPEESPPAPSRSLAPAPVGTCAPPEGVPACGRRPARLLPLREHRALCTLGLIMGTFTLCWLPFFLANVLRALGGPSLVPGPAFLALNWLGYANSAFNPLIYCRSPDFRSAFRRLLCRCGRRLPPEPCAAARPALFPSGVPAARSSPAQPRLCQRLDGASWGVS
Kind of experiment: Functional assay: cAMP production (LANCE TR-FRET) in CHO cells stably transfected with cloned β3 adrenergic receptor. The format is cell-based. To be noted: Table 2; cAMP production, CHO cells expressing human β3 AR; read-out: Human β3 functional. Background: Cyclic AMP is a second messenger, typically raised through Gs and lowered through Gi signalling.
As for `COc1cc2ncn(CC(=O)Nc3ccc(CC4CC[C@H]([C@H](O)c5cccnc5)N4)cc3)c(=O)c2cc1OC` (some centres unmarked) [Example 51], the EC50 was in the range of 0.001 to 0.01 µM. The same measure, in the same setting: under `O=C(Cc1nnc(-c2ccc(Cl)cc2)[nH]1)Nc1ccc(CC2CC[C@H]([C@H](O)c3cccnc3)N2)cc1` (some centres unmarked) [Example 24] stands 0.011 to 0.1 µM; under `O=C(Cc1ccccn1)Nc1ccc(CC2CC[C@H]([C@H](O)c3cccnc3)N2)cc1` (some centres unmarked) [Example 14], 0.011 to 0.1 µM. The same measure, in the same setting: the figure for `O=C(Cn1c(=O)[nH]c(=O)c2ccccc21)Nc1ccc(CC2CC[C@H]([C@H](O)c3cccnc3)N2)cc1` (some centres unmarked) [Example 57] is 0.001 to 0.01 µM; for `O=C(Cn1c(=O)cnc2ccccc21)Nc1ccc(CC2CC[C@H]([C@H](O)c3cccnc3)N2)cc1` (some centres unmarked) [Example 58] it is 0.001 to 0.01 µM.

For `O=C(Cn1ccccc1=O)Nc1ccc(CC2CC[C@H]([C@H](O)c3cccnc3)N2)cc1` (some centres unmarked) [Example 40], the EC50 fell in the range of 0.001 to 0.01 µM. Same read-out and setting: the figure for `Nc1ncn(CC(=O)Nc2ccc(CC3CC[C@H]([C@H](O)c4cccnc4)N3)cc2)n1` (some centres unmarked) [Example 20] is 0.001 to 0.01 µM; for `O=C(Cn1[nH]c(=O)c2ccccc2c1=O)Nc1ccc(CC2CC[C@H]([C@H](O)c3cccnc3)N2)cc1` (some centres unmarked) [Example 67] it is 0.011 to 0.1 µM; for `O=C(Cc1ccccc1F)Nc1ccc(CC2CC[C@H]([C@H](O)c3cccnc3)N2)cc1` (some centres unmarked) [Example 77] it is 0.011 to 0.1 µM. With `O=C(Cn1cnc2ccsc2c1=O)Nc1ccc(CC2CC[C@H]([C@H](O)c3cccnc3)N2)cc1` (some centres unmarked) [Example 75], the EC50 is 0.001 to 0.01 µM. Still for that read-out and setting: the figure for `O=C(Cc1cnccn1)Nc1ccc(CC2CC[C@H]([C@H](O)c3cccnc3)N2)cc1` (some centres unmarked) [Example 41] is 0.011 to 0.1 µM; for `Cc1nc2ccccc2c(=O)n1CC(=O)Nc1ccc(CC2CC[C@H]([C@H](O)c3cccnc3)N2)cc1` (some centres unmarked) [Example 11] it is 0.001 to 0.01 µM.

Regarding `O=C(Cn1nc2ccccc2n1)Nc1ccc(CC2CC[C@H]([C@H](O)c3cccnc3)N2)cc1` (some centres unmarked) [Example 7], the EC50 was in the range of 0.011 to 0.1 µM. The same measure, in the same setting: under `O=C(Cn1nc(Cl)ccc1=O)Nc1ccc(CC2CC[C@H]([C@H](O)c3cccnc3)N2)cc1` (some centres unmarked) [Example 66] stands 0.011 to 0.1 µM; under `CN1CCN(CC(=O)Nc2ccc(CC3CC[C@H]([C@H](O)c4cccnc4)N3)cc2)C1=O` (some centres unmarked) [Example 86], 0.101 to 1 µM. On the same count and under the same terms, under `CNc1ncncc1CC(=O)Nc1ccc(CC2CC[C@H]([C@H](O)c3cccnc3)N2)cc1` (some centres unmarked) [Example 50] stands 0.101 to 1 µM.

Still in this experiment, the particulars now being: Table 3; cAMP production, CHO cells expressing human β3 AR; read-out: Human β3 functional.
As to `CC(C(=O)Nc1ccc(CC2CC[C@H]([C@H](O)c3cccnc3)N2)cc1)n1cnnn1` (single isomer, unassigned) [Example 183], the EC50 lay within 0.001 to 0.01 µM. Still for that read-out and setting: the figure for `Cc1nc(C(C)C(=O)Nc2ccc(CC3CC[C@H]([C@H](O)c4cccnc4)N3)cc2)c(C)s1` (single isomer, unassigned) [Example 104] is 1 to 3 µM; for `COC(=O)c1cn(C(C)C(=O)Nc2ccc(CC3CC[C@H]([C@H](O)c4cccnc4)N3)cc2)nn1` (single isomer, unassigned) [Example 151] it is 0.011 to 0.1 µM. `CC(C(=O)Nc1ccc(CC2CC[C@H]([C@H](O)c3cccnc3)N2)cc1)n1cnccc1=O` (single isomer, unassigned) [Example 165]: the EC50 fell in the range of 0.001 to 0.01 µM. The same measure, in the same setting: the figure for `Cc1noc2c1CCC2C(=O)Nc1ccc(CC2CC[C@H]([C@H](O)c3cccnc3)N2)cc1` (single isomer, unassigned) [Example 168] is 0.001 to 0.01 µM; for `O=C(Nc1ccc(CC2CC[C@H]([C@H](O)c3cccnc3)N2)cc1)C1CCc2cccnc21` (single isomer, unassigned) [Example 127] it is 0.001 to 0.01 µM.

`Cc1nnc2n1CCC2C(=O)Nc1ccc(CC2CC[C@H]([C@H](O)c3cccnc3)N2)cc1` (single isomer, unassigned) [Example 171]: the EC50 was 0.011 to 0.1 µM. Same read-out and setting: the figure for `O=C(Nc1ccc(CC2CC[C@H]([C@H](O)c3cccnc3)N2)cc1)C1CCc2nc3ccccc3c(=O)n21` (single isomer, unassigned) [Example 192] is 0.011 to 0.1 µM; for `CC(C(=O)Nc1ccc(CC2CC[C@H]([C@H](O)c3cccnc3)N2)cc1)c1ccn(C)n1` (single isomer, unassigned) [Example 215] it is 0.101 to 1 µM; for `O=C(O)c1nc2c(s1)CCC2C(=O)Nc1ccc(CC2CC[C@H]([C@H](O)c3cccnc3)N2)cc1` (single isomer, unassigned) [Example 138] it is 0.011 to 0.1 µM. Same read-out and setting: the figure for `Cc1nc(C(C)C(=O)Nc2ccc(CC3CC[C@H]([C@H](O)c4cccnc4)N3)cc2)c(C)s1` (single isomer, unassigned) [Example 103] is 0.101 to 1 µM; for `O=C(Nc1ccc(CC2CC[C@H]([C@H](O)c3cccnc3)N2)cc1)C1CCc2sc(Br)nc21` (single isomer, unassigned) [Example 158] it is less than 0.001 µM; for `CC(C(=O)Nc1ccc(CC2CC[C@H]([C@H](O)c3cccnc3)N2)cc1)n1ccc(C(N)=O)n1` (single isomer, unassigned) [Example 203] it is 0.101 to 1 µM. Still for that read-out and setting: the figure for `Cc1nc2c(s1)CCC2(C)C(=O)Nc1ccc(CC2CC[C@H]([C@H](O)c3cccnc3)N2)cc1` (single isomer, unassigned) [Example 129] is 1 to 3 µM; for `CC(C(=O)Nc1ccc(C[C@@H]2CC[C@H]([C@H](O)c3cccnc3)N2)cc1)n1cccnc1=O` (single isomer, unassigned) [Example 167] it is 0.001 to 0.01 µM. Regarding `CC(C(=O)Nc1ccc(CC2CC[C@H]([C@H](O)c3cccnc3)N2)cc1)c1ccn[nH]1` (single isomer, unassigned) [Example 179], the EC50 lay within 0.011 to 0.1 µM.

Take `CC(C(=O)Nc1ccc(CC2CC[C@H]([C@H](O)c3cccnc3)N2)cc1)n1cc(C(=O)O)nn1` (single isomer, unassigned) [Example 199]: the EC50 fell in the range of 0.011 to 0.1 µM. On the same count and under the same terms, the figure for `CC(C(=O)Nc1ccc(CC2CC[C@H]([C@H](O)c3cccnc3)N2)cc1)c1ccn[nH]1` (single isomer, unassigned) [Example 178] is 0.001 to 0.01 µM; for `CC(C(=O)Nc1ccc(CC2CC[C@H]([C@H](O)c3cccnc3)N2)cc1)n1nccn1` (single isomer, unassigned) [Example 142] it is 0.001 to 0.01 µM. Same read-out and setting: under `COCc1nc2c(s1)CCC2C(=O)Nc1ccc(CC2CC[C@H]([C@H](O)c3cccnc3)N2)cc1` (single isomer, unassigned) [Example 125] stands 0.011 to 0.1 µM; under `O=C(Nc1ccc(CC2CC[C@H]([C@H](O)c3cccnc3)N2)cc1)C1CCc2sc(F)nc21` (single isomer, unassigned) [Example 156], 0.001 to 0.01 µM; under `CC(C(=O)Nc1ccc(CC2CC[C@H]([C@H](O)c3cccnc3)N2)cc1)n1cncn1` (single isomer, unassigned) [Example 141], 0.001 to 0.01 µM.

`Nc1nc2c(s1)CCC2C(=O)Nc1ccc(CC2CC[C@H]([C@H](O)c3cccnc3)N2)cc1` (single isomer, unassigned) [Example 114]: the EC50 lay in the range of 0.011 to 0.1 µM.

For the compound `O=C(Nc1ccc(CC2CC[C@H]([C@H](O)c3cccnc3)N2)cc1)[C@@H]1CCc2ncnn21` (single isomer, unassigned) [Example 194], the EC50 was 0.011 to 0.1 µM.

Regarding `CC(C(=O)Nc1ccc(CC2CC[C@H]([C@H](O)c3cccnc3)N2)cc1)n1nccn1` (single isomer, unassigned) [Example 143], the EC50 was in the range of 0.001 to 0.01 µM.

Turning to `CC(C(=O)Nc1ccc(CC2CC[C@H]([C@H](O)c3cccnc3)N2)cc1)n1cnccc1=O` (single isomer, unassigned) [Example 164], the EC50 was 0.001 to 0.01 µM. Still for that read-out and setting: the figure for `Cc1nc2c(s1)CCCC2C(=O)Nc1ccc(CC2CC[C@H]([C@H](O)c3cccnc3)N2)cc1` (single isomer, unassigned) [Example 132] is 0.101 to 1 µM. On the same count and under the same terms, the figure for `CCc1nc2c(s1)CCC2C(=O)Nc1ccc(CC2CC[C@H]([C@H](O)c3cccnc3)N2)cc1` (single isomer, unassigned) [Example 119] is 0.101 to 1 µM.

Staying with this experiment, now noted: Table 4; cAMP production, CHO cells expressing human β3 AR; read-out: Human β3 functional.
With `O=S(=O)(Nc1ccc(CC2CC[C@H]([C@H](O)c3cccnc3)N2)cc1)c1ccc(-n2cccn2)cc1` (some centres unmarked) [Example 227], the EC50 fell in the range of 0.011 to 0.1 µM.

Turning to `N#Cc1ccccc1S(=O)(=O)Nc1ccc(CC2CC[C@H]([C@H](O)c3cccnc3)N2)cc1` (some centres unmarked) [Example 235], the EC50 fell in the range of 0.101 to 1 µM. The same measure, in the same setting: the figure for `O=S(=O)(Nc1ccc(CC2CC[C@H]([C@H](O)c3cccnc3)N2)cc1)c1cccc2cnccc12` (some centres unmarked) [Example 230] is 0.101 to 1 µM. Still for that read-out and setting: under `O=C(N1CCc2ccc(S(=O)(=O)Nc3ccc(CC4CC[C@H]([C@H](O)c5cccnc5)N4)cc3)cc2C1)C(F)(F)F` (some centres unmarked) [Example 233] stands 0.101 to 1 µM.

The experiment is the same for the next values; noted with them: Table 6; human β3 functional activity given as ranges; read-out: Human β3 functional.
`CC(NS(=O)(=O)c1ccccc1)C(=O)Nc1ccc(C[C@@H]2CC[C@H]([C@H](O)c3cccnc3)N2)cc1` (some centres unmarked) [Example 257]: the EC50 was 0.011 to 0.1 µM. On the same count and under the same terms, under `CC(NC(=O)c1cscn1)C(=O)Nc1ccc(C[C@@H]2CC[C@H]([C@H](O)c3cccnc3)N2)cc1` (some centres unmarked) [Example 251] stands 0.001 to 0.01 µM; under `CC(C(=O)Nc1ccc(C[C@@H]2CC[C@H]([C@H](O)c3cccnc3)N2)cc1)N(C)C(=O)c1ccccn1` (some centres unmarked) [Example 247], 0.101 to 1 µM.

Staying with this experiment, now noted: cAMP production, CHO cells expressing human β3 AR; read-out: human Beta-3 agonist functional activity.
Take `O=S(=O)(Nc1ccc(C[C@@H]2CC[C@H]([C@H](O)c3cccnc3)N2)cc1)c1ccc(-c2nc(-c3ccc(C(F)(F)F)cc3)cs2)cc1` [Example 222, N-[4-({(2S,5R)-5-[(R)-hydroxy(pyridin-3-yl)methyl]pyrrolidin-2-yl}methyl)phenyl]-4-{4-[4-(trifluoromethyl)phenyl]-1,3-thiazol-2-yl}benzenesulfonamide, trifluoroacetic acid salt]: the EC50 is less than 0.01 µM. For the compound `C[C@@H](C(=O)Nc1ccc(C[C@@H]2CC[C@H]([C@H](O)c3cccnc3)N2)cc1)c1ccccn1` (single isomer, unassigned) [Example 94, trifluoroacetic acid salt], the EC50 is less than 0.1 µM.
